Measured values reported in PubChem BioAssay (NCI).
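GI50 is the concentration that inhibits growth by half. TGI is the concentration that stops growth completely.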

What was measured:
Test in all cases: NCI anticancer screen, dose series, 384-well format
SNB-75 CNS = test system: SNB-75 CNS
SK-MEL-5 melanoma = test system: SK-MEL-5 melanoma
HCT-15 colon = test system: HCT-15 colon
RPMI-8226 leukemia = test system: RPMI-8226 leukemia
OVCAR-4 ovarian = test system: OVCAR-4 ovarian
TK-10 renal = test system: TK-10 renal
UACC-62 melanoma = test system: UACC-62 melanoma
CAKI-1 renal = test system: CAKI-1 renal
UO-31 renal = test system: UO-31 renal
KM12 colon = test system: KM12 colon
HOP-92 NSCLC = test system: HOP-92 NSCLC
BT-549 breast = test system: BT-549 breast
T-47D breast = test system: T-47D breast
SW-620 colon = test system: SW-620 colon
PC-3 prostate = test system: PC-3 prostate
CCRF-CEM leukemia = test system: CCRF-CEM leukemia
SF-268 CNS = test system: SF-268 CNS
COLO 205 colon = test system: COLO 205 colon
MDA-MB-435 melanoma = test system: MDA-MB-435 melanoma
SK-MEL-28 melanoma = test system: SK-MEL-28 melanoma
MDA-MB-231 breast = test system: MDA-MB-231 breast
EKVX NSCLC = test system: EKVX NSCLC
ACHN renal = test system: ACHN renal
SK-MEL-2 melanoma = test system: SK-MEL-2 melanoma
SK-OV-3 ovarian = test system: SK-OV-3 ovarian
NCI/ADR-RES ovarian = test system: NCI/ADR-RES ovarian
UACC-257 melanoma = test system: UACC-257 melanoma
RXF 393 renal = test system: RXF 393 renal
HT29 colon = test system: HT29 colon
MDA-MB-468 breast = test system: MDA-MB-468 breast
NCI-H23 lung = test system: NCI-H23 lung
A549 NSCLC = test system: A549 NSCLC
HS 578T breast = test system: HS 578T breast
HCC-2998 colon = test system: HCC-2998 colon
SN12C renal = test system: SN12C renal
MALME-3M melanoma = test system: MALME-3M melanoma
K-562 leukemia = test system: K-562 leukemia
SF-539 CNS = test system: SF-539 CNS
786-0 renal = test system: 786-0 renal
OVCAR-5 ovarian = test system: OVCAR-5 ovarian
NCI-H322M lung = test system: NCI-H322M lung
OVCAR-8 ovarian = test system: OVCAR-8 ovarian
NCI-H226 lung = test system: NCI-H226 lung
SNB-19 CNS = test system: SNB-19 CNS
SF-295 CNS = test system: SF-295 CNS
M14 melanoma = test system: M14 melanoma
U251 glioblastoma = test system: U251 glioblastoma
OVCAR-3 ovarian = test system: OVCAR-3 ovarian
LOX IMVI melanoma = test system: LOX IMVI melanoma
IGROV1 ovarian = test system: IGROV1 ovarian
NCI-H522 lung = test system: NCI-H522 lung
NCI-H460 NSCLC = test system: NCI-H460 NSCLC
HCT-116 colon = test system: HCT-116 colon
DU-145 prostate = test system: DU-145 prostate
A498 renal = test system: A498 renal
MOLT-4 leukemia = test system: MOLT-4 leukemia
HOP-62 NSCLC = test system: HOP-62 NSCLC
HL-60(TB) leukemia = test system: HL-60(TB) leukemia
MCF7 breast = test system: MCF7 breast

C#CC(F)(F)[C@]1(O)CC[C@H]2[C@@H]3CCC4=CC(=O)CCC4=C3[C@@H](c3ccc(C4CC4)cc3)C[C@@]21C
GI50 (SNB-75 CNS): 14.2 nM | TGI (SNB-75 CNS): 28.2 nM | GI50 (SK-MEL-5 melanoma): 1700 nM | TGI (SK-MEL-5 melanoma): 3100 nM | GI50 (HCT-15 colon): 245 nM | TGI (HCT-15 colon): 2300 nM | GI50 (RPMI-8226 leukemia): < 10 nM | TGI (RPMI-8226 leukemia): 18.6 nM | GI50 (OVCAR-4 ovarian): < 10 nM | TGI (OVCAR-4 ovarian): < 10 nM | GI50 (TK-10 renal): 21.4 nM | TGI (TK-10 renal): 104 nM | GI50 (UACC-62 melanoma): 17.6 nM | TGI (UACC-62 melanoma): 32.8 nM | GI50 (CAKI-1 renal): < 10 nM | TGI (CAKI-1 renal): < 10 nM | GI50 (UO-31 renal): < 10 nM | TGI (UO-31 renal): < 10 nM | GI50 (KM12 colon): 12 nM | TGI (KM12 colon): 25.5 nM | GI50 (HOP-92 NSCLC): < 10 nM | TGI (HOP-92 NSCLC): < 10 nM | GI50 (BT-549 breast): 20.3 nM | TGI (BT-549 breast): 42.2 nM | GI50 (T-47D breast): 80.6 nM | TGI (T-47D breast): 1770 nM | GI50 (SW-620 colon): 334 nM | TGI (SW-620 colon): 1390 nM | GI50 (PC-3 prostate): 19.6 nM | TGI (PC-3 prostate): 51.8 nM | GI50 (CCRF-CEM leukemia): < 10 nM | TGI (CCRF-CEM leukemia): < 10 nM | GI50 (SF-268 CNS): 11.2 nM | TGI (SF-268 CNS): 25.8 nM | GI50 (COLO 205 colon): 1320 nM | TGI (COLO 205 colon): 4580 nM | GI50 (MDA-MB-435 melanoma): 1250 nM | TGI (MDA-MB-435 melanoma): 3510 nM | GI50 (SK-MEL-28 melanoma): 2030 nM | TGI (SK-MEL-28 melanoma): 4340 nM | GI50 (MDA-MB-231 breast): < 10 nM | TGI (MDA-MB-231 breast): < 10 nM | GI50 (EKVX NSCLC): < 10 nM | TGI (EKVX NSCLC): 10.9 nM | GI50 (ACHN renal): < 10 nM | TGI (ACHN renal): < 10 nM | GI50 (SK-MEL-2 melanoma): 64.6 nM | TGI (SK-MEL-2 melanoma): 244 nM | GI50 (SK-OV-3 ovarian): 34.2 nM | TGI (SK-OV-3 ovarian): 111 nM | GI50 (NCI/ADR-RES ovarian): 12 nM | TGI (NCI/ADR-RES ovarian): 44.8 nM | GI50 (UACC-257 melanoma): 459 nM | TGI (UACC-257 melanoma): 2110 nM | GI50 (RXF 393 renal): < 10 nM | TGI (RXF 393 renal): < 10 nM | GI50 (HT29 colon): 267 nM | TGI (HT29 colon): 1180 nM | GI50 (MDA-MB-468 breast): < 10 nM | TGI (MDA-MB-468 breast): < 10 nM | GI50 (NCI-H23 lung): < 10 nM | TGI (NCI-H23 lung): < 10 nM | GI50 (A549 NSCLC): 39.5 nM | TGI (A549 NSCLC): 190 nM | GI50 (HS 578T breast): 377 nM | TGI (HS 578T breast): 1510 nM | GI50 (HCC-2998 colon): 23.9 nM | TGI (HCC-2998 colon): 50.7 nM | GI50 (SN12C renal): 2010 nM | TGI (SN12C renal): 4060 nM | GI50 (MALME-3M melanoma): < 10 nM | TGI (MALME-3M melanoma): < 10 nM | GI50 (K-562 leukemia): 111 nM | TGI (K-562 leukemia): 320 nM | GI50 (SF-539 CNS): 17.2 nM | TGI (SF-539 CNS): 32 nM | GI50 ([…]-0 renal): 10.7 nM | TGI (786-0 renal): 24 nM | GI50 (OVCAR-5 ovarian): 574 nM | TGI (OVCAR-5 ovarian): 2410 nM | GI50 (NCI-H322M lung): 2480 nM | TGI (NCI-H322M lung): 6890 nM | GI50 (OVCAR-8 ovarian): 61.6 nM | TGI (OVCAR-8 ovarian): 934 nM | GI50 (NCI-H226 lung): 218 nM | TGI (NCI-H226 lung): 2000 nM | GI50 (SNB-19 CNS): 3020 nM | TGI (SNB-19 CNS): 8610 nM | GI50 (SF-295 CNS): 30.2 nM | TGI (SF-295 CNS): 83.4 nM | GI50 (M14 melanoma): 37.6 nM | TGI (M14 melanoma): 146 nM | GI50 (U251 glioblastoma): 97.5 nM | TGI (U251 glioblastoma): 444 nM | GI50 (OVCAR-3 ovarian): < 10 nM | TGI (OVCAR-3 ovarian): < 10 nM | GI50 (LOX IMVI melanoma): < 10 nM | TGI (LOX IMVI melanoma): < 10 nM | GI50 (IGROV1 ovarian): < 10 nM | TGI (IGROV1 ovarian): < 10 nM | GI50 (NCI-H522 lung): < 10 nM | TGI (NCI-H522 lung): < 10 nM | GI50 (NCI-H460 NSCLC): 1850 nM | TGI (NCI-H460 NSCLC): 3410 nM | GI50 (HCT-116 colon): 1760 nM | TGI (HCT-116 colon): 3350 nM | GI50 (DU-145 prostate): 1540 nM | TGI (DU-145 prostate): 3180 nM | GI50 (A498 renal): 13.2 nM | TGI (A498 renal): 26.1 nM | GI50 (MOLT-4 leukemia): 17.4 nM | TGI (MOLT-4 leukemia): 31.6 nM | GI50 (HOP-62 NSCLC): < 10 nM | TGI (HOP-62 NSCLC): 41.1 nM | GI50 (HL-60(TB) leukemia): < 10 nM | TGI (HL-60(TB) leukemia): < 10 nM | GI50 (MCF7 breast): 1480 nM | TGI (MCF7 breast): 7970 nM
